{"source": "PubChem BioAssay AID1963432", "about": "(Molecular Pharmacology Branch, DTP, NCI, 2024)", "test_system": "SYO-1 complex spheroid growth, percent test/control", "experiment": "Anticancer human tumor SYO-1 cell line growth inhibition [Asc];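 as to all read-outs here: compound exposure lasted 7 days after spheroids grew 3 days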;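 as to viability, T/C: 100% = DMSO vehicle control viability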", "settings": "for IC50: curve of first compound; for viability, T/C: stronger effect = lower value", "method": "Multicellular complex tumor spheroid response to apoptosis pathway targeting inhibitors Alrizomadlin, Pelcitoclax, and Dasminapant in combination with a variety of drugs and investigational agents in selected tumor cell lines\nThe MDM2 inhibitor alrizomadlin, the Bcl-2/Bcl-xL inhibitor pelcitoclax, and the IAPs inhibitor dasminapant were evaluated both individually and in combination with standard of care and investigational anticancer small molecules within a complex spheroid model of solid tumors. . Complex spheroids include a stromal component modeled by human endothelial cells (HUVEC) and fibroblasts modeled by human mesenchymal stem cells (MSCs). The concentration ranges selected for each drug and investigational agent were based upon clinically achievable concentrations if the clinical Cmax of the agent was known.\nCompounds. The drugs and investigational agents: alrizomadlin (APG-115; NSC831270), pelcitoclax (APG-1252; NSC835773), dasminapant (APG-1387;NSC834197), TAK-243 (NSC785004), copanlisib (NSC809693), olaparib (NSC753686), talazoparib (NSC767125), cobimetinib (NSC 768068), eltanexor (KPT-8602, NSC 794443), abemaciclib (NSC 768073), sotorasib (NSC818433), adagrasib (NSC 831453), MRTX-1133 (NSC 836407), Iadademestat (ORY1001, NSC 806812), and RMC-4630 (NSC839698), were obtained from the NCI Developmental Therapeutics Program Chemical Repository. The FDA-approved anticancer drug set is available from the Developmental Therapeutics Program at https://dtp.cancer.gov/organization/dscb/obtaining/available plates.htm. […] The stock solutions were prepared in dimethyl sulfoxide (DMSO, Sigma-Aldrich, St. Louis, MO, cat. D2650) at 800-fold the tested concentration and stored at -70 degrees C prior to their use. All drugs and investigational agents were tested over a range starting from a high concentration at or near the clinical Cmax and decreasing in half-log increments. If the clinical Cmax for an agent had not been determined, the highest concentration tested was 10 microM.\nThe patient-derived cancer (PDC) cell lines include five colon adenocarcinomas: 186277-243-T-J2-PDC, 616215-338-R-J1-PDC, 439559-082-T-J2-PDC, 463943-066-T-J2-PDC, and 519858-162-T-J1-PDC; three pancreatic carcinomas: 323965-272-R-J2-PDC, 521955-158-R6-J3-PDC, and 521955-158-R2-J5-PDC; two uterine sarcomas: 327498-152-R-J2-PDC and 993429-296-R-J1-PDC; two rhabdomyosarcomas: 755483-174-R-J1-PDC and 772245-204-R-J1-PDC; two soft tissue sarcomas: 126254-015-R-J1-PDC and 494315-158-R-J1-PDC; two malignant fibrous histiocytomas: 317291-083-R-J1-PDC and 596521-263-R-J1-PDC; two breast carcinomas: 171881-019-R-J1-PDC and 885512-296-R-J2-PDC; and one ovarian carcinoma: 6556581-035-R-J-PDC were obtained from the NCI PDMR, (https://pdmr.cancer.gov). The established cell lines HSSY-2 synovial sarcoma (RRID:CVCL 8719), SYO-1 synovial sarcoma (RRID:CVCL_7146), MPNST malignant peripheral neural sheath tumor were obtained from the Sloan Kettering Institute. The following established cell lines were purchased from the American Type Culture Collection (ATCC, Manassas, VA), Sor the received from the NCI repository:, PANC-1 pancreatic carcinoma (CRL-1469, RRID:CVCL_0480), OVCAR-5 ovarian carcinoma (RRID:CVCL_1628), OVCAR-8 ovarian carcinoma (RRID:CVCL_1629), , MCF-7 breast carcinoma (CRL-12584, RRID:CVCL_0031), MDA-MB-231 breast carcinoma (CRL-12532, RRID:CVCL_0062), NCI-H1876 small cell lung carcinoma (CRL-5902, RRID:CVCL_1503), NCI-H510A small cell lung carcinoma (HTB-184, RRID:CVCL_1565), NCI-H1417 (CRL-5869, RRID:CVCL_1469), and NCI-H196 small cell lung carcinoma (CRL-5823, RRID:CVCL_1509). Dr. Peter Houghton (Greehey Children's Cancer Research Institute, University of Texas Health Science Center, San Antonio, TX) provided Rh-18 rhabdomyosarcoma (RRID:CVCL_1659). Pooled donor human umbilical vein endothelial cells (HUVEC, Lonza, cat. CC-2519) and human mesenchymal stem cells (hMSC, Lonza, cat. PT-2501) were purchased from Lonza (Walkersville, MD).\nCell Culture. […]", "data": [{"smiles": "COc1c(OCCCN2CCOCC2)ccc2c3n(c(=NC(=O)c4cnc(N)nc4)nc12)CCN3", "note": "+ CCN1C(C(=O)NC23CCC(C(=O)O)(CC2)CC3)C(c2cccc(Cl)c2F)C2(C(=O)Nc3cc(Cl)ccc32)C12CCCCC2", "values": [{"measurement": "IC50", "setting": "second compound 0.00949 µM", "value": 800, "unit": "nM"}, {"measurement": "IC50", "setting": "second compound 0.03 µM", "value": 540, "unit": "nM"}, {"measurement": "IC50", "setting": "second compound 0.0949 µM", "value": 123, "unit": "nM"}, {"measurement": "IC50", "setting": "second compound 0.3 µM", "value": "< 3.16", "unit": "nM"}, {"measurement": "IC50", "setting": "second compound 0.949 µM", "value": "< 3.16", "unit": "nM"}, {"measurement": "IC50", "setting": "second compound 3 µM", "value": "< 3.16", "unit": "nM"}, {"measurement": "viability, T/C", "setting": "second compound 0.00949 µM, first compound 0.00316 µM", "value": 110, "unit": "%"}, {"measurement": "viability, T/C", "setting": "second compound 0.00949 µM, first compound 0.01 µM", "value": 109, "unit": "%"}, {"measurement": "viability, T/C", "setting": "second compound 0.00949 µM, first compound 0.0316 µM", "value": 101, "unit": "%"}, {"measurement": "viability, T/C", "setting": "second compound 0.00949 µM, first compound 0.1 µM", "value": 85.2, "unit": "%"}, {"measurement": "viability, T/C", "setting": "second compound 0.00949 µM, first compound 0.316 µM", "value": 75.4, "unit": "%"}, {"measurement": "viability, T/C", "setting": "second compound 0.00949 µM, first compound 1 µM", "value": 43.4, "unit": "%"}, {"measurement": "viability, T/C", "setting": "second compound 0.03 µM, first compound 0.00316 µM", "value": 103, "unit": "%"}, {"measurement": "viability, T/C", "setting": "second compound 0.03 µM, first compound 0.01 µM", "value": 103, "unit": "%"}, {"measurement": "viability, T/C", "setting": "second compound 0.03 µM, first compound 0.0316 µM", "value": 96.9, "unit": "%"}, {"measurement": "viability, T/C", "setting": "second compound 0.03 µM, first compound 0.1 µM", "value": 80.8, "unit": "%"}, {"measurement": "viability, T/C", "setting": "second compound 0.03 µM, first compound 0.316 µM", "value": 69.3, "unit": "%"}, {"measurement": "viability, T/C", "setting": "second compound 0.03 µM, first compound 1 µM", "value": 30.6, "unit": "%"}, {"measurement": "viability, T/C", "setting": "second compound 0.0949 µM, first compound 0.00316 µM", "value": 85.8, "unit": "%"}, {"measurement": "viability, T/C", "setting": "second compound 0.0949 µM, first compound 0.01 µM", "value": 86.3, "unit": "%"}, {"measurement": "viability, T/C", "setting": "second compound 0.0949 µM, first compound 0.0316 µM", "value": 77.2, "unit": "%"}, {"measurement": "viability, T/C", "setting": "second compound 0.0949 µM, first compound 0.1 µM", "value": 52.1, "unit": "%"}, {"measurement": "viability, T/C", "setting": "second compound 0.0949 µM, first compound 0.316 µM", "value": 32.2, "unit": "%"}, {"measurement": "viability, T/C", "setting": "second compound 0.0949 µM, first compound 1 µM", "value": 16, "unit": "%"}, {"measurement": "viability, T/C", "setting": "second compound 0.3 µM, first compound 0.00316 µM", "value": 20.3, "unit": "%"}, {"measurement": "viability, T/C", "setting": "second compound 0.3 µM, first compound 0.01 µM", "value": 23.4, "unit": "%"}, {"measurement": "viability, T/C", "setting": "second compound 0.3 µM, first compound 0.0316 µM", "value": 19.3, "unit": "%"}, {"measurement": "viability, T/C", "setting": "second compound 0.3 µM, first compound 0.1 µM", "value": 16.3, "unit": "%"}, {"measurement": "viability, T/C", "setting": "second compound 0.3 µM, first compound 0.316 µM", "value": 12, "unit": "%"}, {"measurement": "viability, T/C", "setting": "second compound 0.3 µM, first compound 1 µM", "value": 2.7, "unit": "%"}, {"measurement": "viability, T/C", "setting": "second compound 0.949 µM, first compound 0.00316 µM", "value": 2.01, "unit": "%"}, {"measurement": "viability, T/C", "setting": "second compound 0.949 µM, first compound 0.01 µM", "value": 3.89, "unit": "%"}, {"measurement": "viability, T/C", "setting": "second compound 0.949 µM, first compound 0.0316 µM", "value": 3.28, "unit": "%"}, {"measurement": "viability, T/C", "setting": "second compound 0.949 µM, first compound 0.1 µM", "value": 2.38, "unit": "%"}, {"measurement": "viability, T/C", "setting": "second compound 0.949 µM, first compound 0.316 µM", "value": 3.39, "unit": "%"}, {"measurement": "viability, T/C", "setting": "second compound 0.949 µM, first compound 1 µM", "value": 0.44, "unit": "%"}, {"measurement": "viability, T/C", "setting": "second compound 3 µM, first compound 0.00316 µM", "value": 1.01, "unit": "%"}, {"measurement": "viability, T/C", "setting": "second compound 3 µM, first compound 0.01 µM", "value": 1.03, "unit": "%"}, {"measurement": "viability, T/C", "setting": "second compound 3 µM, first compound 0.0316 µM", "value": 1.75, "unit": "%"}, {"measurement": "viability, T/C", "setting": "second compound 3 µM, first compound 0.1 µM", "value": 0.55, "unit": "%"}, {"measurement": "viability, T/C", "setting": "second compound 3 µM, first compound 0.316 µM", "value": 0.57, "unit": "%"}, {"measurement": "viability, T/C", "setting": "second compound 3 µM, first compound 1 µM", "value": 0.45, "unit": "%"}]}]}
